Experimental data from ChEMBL document CHEMBL1135788, “Novel structures derived from 2-[[(2-pyridyl)methyl]thio]-1H-benzimidazole as anti-Helicobacter pylori agents, Part 1” (2002).
Converted amounts (≈) assume the structure as drawn. “And” between values parts separate entries of the source, which are not always exact repeats. Identical values can stand only once.

Test system: Helicobacter pylori
Assay: (§1) Minimum bactericidal concentration against Helicobacter pylori ATCC 43504
Format: functional

**Q.** For `COCCOCCOCCSc1cccc(CNc2nc3ccccc3[nH]2)c1C`, which MBC is on record?
**A.** The MBC was 32 µg/mL (≈ 77 µM).

Test system: Helicobacter pylori
Assay: Minimum bactericidal concentration against Helicobacter pylori ATCC 43504; range 2-4 ug/mL
Format: functional

**Q.** With `Cc1ncc([N+](=O)[O-])n1CCO` [METRONIDAZOLE] as the molecule, how does the MBC read?
**A.** Its MBC is 2 µg/mL (≈ 11.7 µM).

Test system: Escherichia coli
Assay: Minimum bactericidal concentration against Escherichia coli K-12
Format: functional

**Q.** For `Cc1c(OCC(C)C)ccnc1CNc1nc2ccccc2[nH]1`, which MBC is on record?
**A.** Its MBC is 206 µM (≈ 63.9 µg/mL).

Test system: Helicobacter pylori
Assay: as §1
Format: functional

**Q.** With `COCCOCCOCCOCCOCCOc1cccc(CSc2nc3ccccc3[nH]2)c1C` as the molecule, how does the MBC read?
**A.** Its MBC is 2 µg/mL and 3.96 µM.

**Q.** `Cc1c(OCC(C)C)ccnc1CSc1nc2ccccc2[nH]1` was tested. Which MBC did it give?
**A.** The MBC was 1 µg/mL and 3 µM.

**Q.** Which MBC does the source give for `COCCOCCOCCOCCOCCSc1cccc(CSc2nc3cc(N)ccc3[nH]2)c1C` here?
**A.** Its MBC is 8 µg/mL and 15 µM.

**Q.** For `COCCOCCOCCSc1cccc(CNc2nc3ccccc3[nH]2)c1C`, which MBC is on record?
**A.** Its MBC is 77 µM.

**Q.** Which MBC does the source give for `Cc1c(OCC(C)C)ccnc1COc1nc2ccccc2s1` here?
**A.** The MBC was 16 µg/mL and 49 µM.

**Q.** With `Cc1c(CNc2nc3ccccc3o2)cccc1OCC(C)C` as the molecule, how does the MBC read?
**A.** Its MBC is > 128 µg/mL and > 412 µM.

**Q.** For `Cc1c(CNc2nc3ccccc3[nH]2)cccc1OCC(C)C`, which MBC is on record?
**A.** Its MBC is 2 µg/mL and 6.5 µM.

**Q.** How did the MBC turn out when `Cc1c(OCC(C)C)ccnc1CCc1cc2ccccc2o1` was run?
**A.** The MBC was 16 µg/mL and 52 µM.

**Q.** With `Cc1c(OCC(C)C)ccnc1CCc1nc2ccccc2[nH]1` as the molecule, how does the MBC read?
**A.** Its MBC is 32 µg/mL and 103 µM.

**Q.** For `Cc1c(CSc2nc3ccccc3[nH]2)cccc1SCCN1CCOCC1`, which MBC is on record?
**A.** Its MBC is 1 µg/mL and 2.5 µM.

**Q.** With `COCCOCCOCCOCCOCCSc1cccc(CSc2nc3cc(CO)ccc3[nH]2)c1C` as the molecule, how does the MBC read?
**A.** Its MBC is 8 µg/mL and 15 µM.

**Q.** With `COCCOCCOCCOCCOCCSc1cccc(CSc2nc3ccccc3[nH]2)c1C` as the molecule, how does the MBC read?
**A.** Its MBC is 0.5 µg/mL and 0.96 µM.

**Q.** `Cc1c(OCC(C)C)ccnc1CSc1nc2ccccc2s1` was tested. Which MBC did it give?
**A.** The MBC was 32 µg/mL and 93 µM.

**Q.** For `COCCOCCOCCSc1cccc(CNc2nc3ccccc3s2)c1C`, which MBC is on record?
**A.** Its MBC is 4 µg/mL and 9.25 µM.

**Q.** With `Cc1c(COc2nc3ccccc3s2)cccc1OCC(C)C` as the molecule, how does the MBC read?
**A.** Its MBC is 128 µg/mL and 391 µM.

**Q.** Which MBC does the source give for `Cc1c(CSc2nc3ccccc3s2)cccc1OCC(C)C` here?
**A.** Its MBC is > 128 µg/mL and > 373 µM.

**Q.** Which MBC does the source give for `CC[C@H]1OC(=O)[C@H](C)[C@@H](O[C@H]2C[C@@](C)(OC)[C@@H](O)[C@H](C)O2)[C@H](C)[C@@H](O[C@@H]2O[C@H](C)C[C@H](N(C)C)[C@H]2O)[C@](C)(OC)C[C@@H](C)C(=O)[C@H](C)[C@@H](O)[C@]1(C)O` [CLARITHROMYCIN] here?
**A.** Its MBC is 0.1 µg/mL.

**Q.** `Cc1c(CCc2nc3ccccc3[nH]2)cccc1OCC(C)C` was tested. Which MBC did it give?
**A.** Its MBC is 8 µg/mL and 26 µM.

**Q.** How did the MBC turn out when `Cc1c(OCC(C)C)ccnc1CCc1nc2ccccc2s1` was run?
**A.** The MBC was 16 µg/mL and 49 µM.

**Q.** `Cc1c(COc2nc3ccccc3o2)cccc1OCC(C)C` was tested. Which MBC did it give?
**A.** The MBC was 32 µg/mL and 103 µM.

**Q.** With `Cc1c(CSc2nc3ccccc3[nH]2)cccc1OCCN1CCOCC1` as the molecule, how does the MBC read?
**A.** The MBC was 16 µg/mL and 42 µM.

**Q.** `CCC(=O)c1ccc2[nH]c(SCc3cccc(SCCOCCOCCOCCOCCOC)c3C)nc2c1` was tested. Which MBC did it give?
**A.** The MBC was 2 µg/mL and 3.47 µM.

**Q.** Which MBC does the source give for `Cc1c(CNc2nc3ccccc3s2)cccc1OCC(C)C` here?
**A.** Its MBC is > 128 µg/mL and > 392 µM.

**Q.** How did the MBC turn out when `Cc1c(OCC(C)C)ccnc1CNc1nc2ccccc2[nH]1` was run?
**A.** The MBC was 8 µg/mL.

**Q.** For `Cc1c(OCC(C)C)ccnc1CSc1nc2ccccc2o1`, which MBC is on record?
**A.** The MBC was 32 µg/mL and 81 µM.

**Q.** Which MBC does the source give for `COCCOCCOCCSc1cccc(CSc2nc3ccccc3[nH]2)c1C` here?
**A.** The MBC was 0.5 µg/mL and 1.16 µM.

**Q.** How did the MBC turn out when `Cc1c(OCC(C)C)ccnc1COc1nc2ccccc2o1` was run?
**A.** The MBC was 16 µg/mL and 51 µM.

**Q.** `Cc1c(OCC(C)C)ccnc1CCc1nc2ccccc2o1` was tested. Which MBC did it give?
**A.** Its MBC is 32 µg/mL and 103 µM.

**Q.** `CC1(C)S[C@@H]2[C@H](NC(=O)[C@H](N)c3ccc(O)cc3)C(=O)N2[C@H]1C(=O)O` [AMOXICILLIN] was tested. Which MBC did it give?
**A.** Its MBC is 0.05 µg/mL.

**Q.** Which MBC does the source give for `Cc1c(CSc2cc3ccccc3[nH]2)cccc1OCC(C)C` here?
**A.** The MBC was 32 µg/mL and 98 µM.

**Q.** How did the MBC turn out when `Cc1c(CSc2nc3ccccc3[nH]2)cccc1SCCn1c([N+](=O)[O-])cnc1C` was run?
**A.** The MBC was 2 µg/mL and 4.55 µM.

**Q.** `Cc1c(CCc2nc3ccccc3s2)cccc1OCC(C)C` was tested. Which MBC did it give?
**A.** The MBC was 32 µg/mL and 98 µM.

**Q.** `Cc1c(OCC(C)C)ccnc1CSc1cc2ccccc2[nH]1` was tested. Which MBC did it give?
**A.** Its MBC is 4 µg/mL and 12 µM.

**Q.** For `Cc1c(CSc2nc3ccccc3o2)cccc1OCC(C)C`, which MBC is on record?
**A.** The MBC was 64 µg/mL and 195 µM.

**Q.** Which MBC does the source give for `Cc1c(CSc2nc3ccccc3[nH]2)cccc1SCC(C)C` here?
**A.** Its MBC is 4 µg/mL and 8.76 µM.

**Q.** How did the MBC turn out when `Cc1c(CSc2nc3ccccc3[nH]2)cccc1SCCn1cncn1` was run?
**A.** Its MBC is 4 µg/mL and 10.5 µM.

**Q.** With `Cc1c(CCc2cc3ccccc3o2)cccc1OCC(C)C` as the molecule, how does the MBC read?
**A.** Its MBC is 128 µg/mL and 415 µM.

**Q.** How did the MBC turn out when `Cc1c(CSc2nc3ccccc3[nH]2)cccc1OCC(C)C` was run?
**A.** The MBC was 8 µg/mL and 19 µM.

**Q.** Which MBC does the source give for `Cc1c(CCc2nc3ccccc3o2)cccc1OCC(C)C` here?
**A.** The MBC was 16 µg/mL and 52 µM.

**Q.** Which MBC does the source give for `COCCOCCOCCOc1cccc(CSc2nc3ccccc3[nH]2)c1C` here?
**A.** Its MBC is 4 µg/mL and 9.6 µM.

**Q.** How did the MBC turn out when `Cc1c(CCc2cc3ccccc3[nH]2)cccc1OCC(C)C` was run?
**A.** The MBC was 16 µg/mL and 52 µM.

**Q.** Which MBC does the source give for `Cc1c(CNc2nc3ccccc3[nH]2)cccc1SCCN1CCOCC1` here?
**A.** Its MBC is 32 µg/mL and 107 µM.

**Q.** How did the MBC turn out when `Cc1c(OCC(C)C)ccnc1CNc1nc2ccccc2s1` was run?
**A.** The MBC was 32 µg/mL and 98 µM.

**Q.** `Cc1c(OCC(C)C)ccnc1CNc1nc2ccccc2o1` was tested. Which MBC did it give?
**A.** The MBC was 32 µg/mL and 103 µM.

**Q.** With `CCOC(=O)c1ccc2[nH]c(SCc3cccc(SCCOCCOCCOCCOCCOC)c3C)nc2c1` as the molecule, how does the MBC read?
**A.** The MBC was 2 µg/mL and 3.37 µM.

Test system: Staphylococcus aureus
Assay: Minimum bactericidal concentration against Staphylococcus aureus CCUG 1800T
Format: functional

**Q.** Which MBC does the source give for `Cc1c(OCC(C)C)ccnc1CNc1nc2ccccc2[nH]1` here?
**A.** The MBC was 64 µg/mL (≈ 206 µM).

Test system: Helicobacter pylori
Assay: as §1
Format: functional
Remark: another data set of the same source

**Q.** Which MBC does the source give for `Cc1c(OCC(C)C)ccnc1CNc1nc2ccccc2[nH]1` here?
**A.** Its MBC is 26 µM (≈ 8.07 µg/mL).
